Reference: PubChem BioAssay (NCI)
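Briefly, cells in 96-well plates were exposed to five compound concentrations for 48 h, and endpoints were estimated by linear interpolation. Abbreviation: GI50, concentration required for 50% inhibition of growth. TGI denotes the concentration required for complete inhibition of growth.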

Key:
Test in all cases: NCI anticancer screen, dose series, 48 h
A498 renal = tested on: A498 renal
A549 NSCLC = tested on: A549 NSCLC
ACHN renal = tested on: ACHN renal
BT-549 breast = tested on: BT-549 breast
CAKI-1 renal = tested on: CAKI-1 renal
CCRF-CEM leukemia = tested on: CCRF-CEM leukemia
COLO 205 colon = tested on: COLO 205 colon
DU-145 prostate = tested on: DU-145 prostate
HCC-2998 colon = tested on: HCC-2998 colon
HCT-116 colon = tested on: HCT-116 colon
HCT-15 colon = tested on: HCT-15 colon
HL-60(TB) leukemia = tested on: HL-60(TB) leukemia
HOP-62 NSCLC = tested on: HOP-62 NSCLC
HOP-92 NSCLC = tested on: HOP-92 NSCLC
HS 578T breast = tested on: HS 578T breast
HT29 colon = tested on: HT29 colon
IGROV1 ovarian = tested on: IGROV1 ovarian
K-562 leukemia = tested on: K-562 leukemia
KM12 colon = tested on: KM12 colon
LOX IMVI melanoma = tested on: LOX IMVI melanoma
M14 melanoma = tested on: M14 melanoma
MALME-3M melanoma = tested on: MALME-3M melanoma
MCF7 breast = tested on: MCF7 breast
MDA-MB-231 breast = tested on: MDA-MB-231 breast
MDA-MB-435 = tested on: MDA-MB-435
MOLT-4 leukemia = tested on: MOLT-4 leukemia
NCI-H226 lung = tested on: NCI-H226 lung
NCI-H23 lung = tested on: NCI-H23 lung
NCI-H460 lung = tested on: NCI-H460 lung
NCI-H522 lung = tested on: NCI-H522 lung
NCI/ADR-RES ovarian = tested on: NCI/ADR-RES ovarian
OVCAR-3 ovarian = tested on: OVCAR-3 ovarian
OVCAR-4 ovarian = tested on: OVCAR-4 ovarian
OVCAR-5 ovarian = tested on: OVCAR-5 ovarian
OVCAR-8 ovarian = tested on: OVCAR-8 ovarian
PC-3 prostate = tested on: PC-3 prostate
RPMI-8226 leukemia = tested on: RPMI-8226 leukemia
RXF 393 renal = tested on: RXF 393 renal
SF-268 CNS = tested on: SF-268 CNS
SF-295 CNS = tested on: SF-295 CNS
SF-539 CNS = tested on: SF-539 CNS
SK-MEL-2 melanoma = tested on: SK-MEL-2 melanoma
SK-MEL-28 melanoma = tested on: SK-MEL-28 melanoma
SK-MEL-5 melanoma = tested on: SK-MEL-5 melanoma
SK-OV-3 ovarian = tested on: SK-OV-3 ovarian
SN12C renal = tested on: SN12C renal
SNB-19 CNS = tested on: SNB-19 CNS
SNB-75 CNS = tested on: SNB-75 CNS
SR leukemia = tested on: SR leukemia
SW-620 colon = tested on: SW-620 colon
T-47D breast = tested on: T-47D breast
TK-10 renal = tested on: TK-10 renal
U251 CNS = tested on: U251 CNS
UACC-257 melanoma = tested on: UACC-257 melanoma
UACC-62 melanoma = tested on: UACC-62 melanoma
UO-31 renal = tested on: UO-31 renal

Q: Which results are given for `Cc1ccc2c(n1)C(=O)C(Cl)=C(Nc1ccc(C)c(C)c1)C2=O`?
A: GI50 (A498 renal): 10.6 µM; TGI (A498 renal): 25.3 µM; GI50 (A549 NSCLC): 3.37 µM; TGI (A549 NSCLC): 17.3 µM; GI50 (ACHN renal): 1.68 µM; TGI (ACHN renal): 3.13 µM; GI50 (BT-549 breast): 1.41 µM; TGI (BT-549 breast): 2.79 µM; GI50 (CAKI-1 renal): 1.59 µM; TGI (CAKI-1 renal): 3.16 µM; GI50 (CCRF-CEM leukemia): 2.46 µM; TGI (CCRF-CEM leukemia): 6.72 µM; GI50 (COLO 205 colon): 17.2 µM; TGI (COLO 205 colon): 44.3 µM; GI50 (DU-145 prostate): 1.72 µM; TGI (DU-145 prostate): 3.42 µM; GI50 (HCC-2998 colon): 2.12 µM; TGI (HCC-2998 colon): 4.69 µM; GI50 (HCT-116 colon): 1.15 µM; TGI (HCT-116 colon): 2.64 µM; GI50 (HCT-15 colon): 1.12 µM; TGI (HCT-15 colon): 2.88 µM; GI50 (HL-60(TB) leukemia): 2.27 µM; TGI (HL-60(TB) leukemia): 5.7 µM; GI50 (HOP-62 NSCLC): 2.49 µM; TGI (HOP-62 NSCLC): 11.2 µM; GI50 (HOP-92 NSCLC): 1.98 µM; TGI (HOP-92 NSCLC): 4.1 µM; GI50 (HS 578T breast): 2.26 µM; TGI (HS 578T breast): 6.47 µM; GI50 (HT29 colon): 24.7 µM; TGI (HT29 colon): > 100 µM; GI50 (IGROV1 ovarian): 1.85 µM; TGI (IGROV1 ovarian): 4.1 µM; GI50 (K-562 leukemia): 2.04 µM; TGI (K-562 leukemia): > 100 µM; GI50 (KM12 colon): 2.96 µM; TGI (KM12 colon): > 100 µM; GI50 (LOX IMVI melanoma): 0.726 µM; TGI (LOX IMVI melanoma): 3.42 µM; GI50 (M14 melanoma): 1.46 µM; TGI (M14 melanoma): 2.96 µM; GI50 (MALME-3M melanoma): 2.13 µM; TGI (MALME-3M melanoma): 4.22 µM; GI50 (MCF7 breast): 1.01 µM; TGI (MCF7 breast): 2.91 µM; GI50 (MDA-MB-231 breast): 1.62 µM; TGI (MDA-MB-231 breast): 3.81 µM; GI50 (MDA-MB-435): 1.8 µM; TGI (MDA-MB-435): 3.76 µM; GI50 (MOLT-4 leukemia): 1.92 µM; TGI (MOLT-4 leukemia): 6.59 µM; GI50 (NCI-H226 lung): 1.72 µM; TGI (NCI-H226 lung): 5.92 µM; GI50 (NCI-H23 lung): 1.2 µM; TGI (NCI-H23 lung): 3.95 µM; GI50 (NCI-H460 lung): 2.07 µM; TGI (NCI-H460 lung): 12 µM; GI50 (NCI-H522 lung): 2 µM; TGI (NCI-H522 lung): 4.9 µM; GI50 (NCI/ADR-RES ovarian): 2.21 µM; TGI (NCI/ADR-RES ovarian): 8.26 µM; GI50 (OVCAR-3 ovarian): 0.59 µM; TGI (OVCAR-3 ovarian): 1.89 µM; GI50 (OVCAR-4 ovarian): 1.36 µM; TGI (OVCAR-4 ovarian): 2.81 µM; GI50 (OVCAR-5 ovarian): 2.23 µM; TGI (OVCAR-5 ovarian): 4.37 µM; GI50 (OVCAR-8 ovarian): 2.27 µM; TGI (OVCAR-8 ovarian): 6.32 µM; GI50 (PC-3 prostate): 1.69 µM; TGI (PC-3 prostate): 12.7 µM; GI50 (RPMI-8226 leukemia): 1.54 µM; TGI (RPMI-8226 leukemia): 4.7 µM; GI50 (RXF 393 renal): 1.5 µM; TGI (RXF 393 renal): 2.85 µM; GI50 (SF-268 CNS): 2.2 µM; TGI (SF-268 CNS): 6.51 µM; GI50 (SF-295 CNS): 1.74 µM; TGI (SF-295 CNS): 3.51 µM; GI50 (SF-539 CNS): 1.77 µM; TGI (SF-539 CNS): 3.23 µM; GI50 (SK-MEL-2 melanoma): 2.54 µM; TGI (SK-MEL-2 melanoma): 6.57 µM; GI50 (SK-MEL-28 melanoma): 2.07 µM; TGI (SK-MEL-28 melanoma): 4.28 µM; GI50 (SK-MEL-5 melanoma): 1.38 µM; TGI (SK-MEL-5 melanoma): 2.74 µM; GI50 (SK-OV-3 ovarian): 22 µM; TGI (SK-OV-3 ovarian): > 100 µM; GI50 (SN12C renal): 2.02 µM; TGI (SN12C renal): 5.27 µM; GI50 (SNB-19 CNS): 1.59 µM; TGI (SNB-19 CNS): 4.07 µM; GI50 (SNB-75 CNS): 1.73 µM; TGI (SNB-75 CNS): 3.87 µM; GI50 (SR leukemia): 1.53 µM; TGI (SR leukemia): 5.75 µM; GI50 (SW-620 colon): 2.07 µM; TGI (SW-620 colon): 4.51 µM; GI50 (T-47D breast): 0.975 µM; TGI (T-47D breast): 3.22 µM; GI50 (TK-10 renal): 7.48 µM; TGI (TK-10 renal): 19.7 µM; GI50 (U251 CNS): 1.48 µM; TGI (U251 CNS): 2.96 µM; GI50 (UACC-257 melanoma): 1.56 µM; TGI (UACC-257 melanoma): 2.98 µM; GI50 (UACC-62 melanoma): 1.78 µM; TGI (UACC-62 melanoma): 4.36 µM; GI50 (UO-31 renal): 1.31 µM; TGI (UO-31 renal): 2.71 µM
